In general, MIC refers to the smallest concentration in the dilution series that meets the test's criterion for growth inhibition. Usually inhibition stands for the drop in the measured response relative to a control, in per cent.

Data set [1] concerns Mycobacterium tuberculosis. The experiment in a line: Antimycobacterial activity against Mycobacterium tuberculosis. It is filed as functional.
Data set [2] concerns the target T1, Cell division protein FtsZ (Mycobacterium tuberculosis) (UniProt P9WN95).
T1 sequence (whole entry): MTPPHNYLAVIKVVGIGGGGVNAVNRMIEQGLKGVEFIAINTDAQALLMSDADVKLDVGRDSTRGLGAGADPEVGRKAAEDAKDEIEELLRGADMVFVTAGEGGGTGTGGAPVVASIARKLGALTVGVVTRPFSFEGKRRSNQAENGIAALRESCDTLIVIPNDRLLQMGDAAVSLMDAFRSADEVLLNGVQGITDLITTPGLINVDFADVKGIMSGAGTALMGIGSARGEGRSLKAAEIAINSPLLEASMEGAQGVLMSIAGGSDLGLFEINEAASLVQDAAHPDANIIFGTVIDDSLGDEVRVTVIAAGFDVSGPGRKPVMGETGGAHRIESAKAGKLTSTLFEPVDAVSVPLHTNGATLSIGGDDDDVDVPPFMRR
The experiment in a line: Inhibition of Mycobacterium tuberculosis FtsZ.

Data set [3] has as its system Mycobacterium tuberculosis. Briefly: Antimycobacterial activity against Mycobacterium tuberculosis H37Ra. It is filed as functional.
The subject of data set [4] is Mycobacterium tuberculosis. Briefly: Antimycobacterial activity against Mycobacterium tuberculosis H37Rv. Format: functional.
Data set [5] in a line: Selectivity index, ratio of MIC for Mycobacterium tuberculosis to cytotoxicity to […] V79 cells. It is filed as functional.
Data set [6] concerns the target T2, Enoyl-[acyl-carrier-protein] reductase [NADH] (Mycobacterium tuberculosis) (UniProt P9WGR1).
T2 sequence (whole entry): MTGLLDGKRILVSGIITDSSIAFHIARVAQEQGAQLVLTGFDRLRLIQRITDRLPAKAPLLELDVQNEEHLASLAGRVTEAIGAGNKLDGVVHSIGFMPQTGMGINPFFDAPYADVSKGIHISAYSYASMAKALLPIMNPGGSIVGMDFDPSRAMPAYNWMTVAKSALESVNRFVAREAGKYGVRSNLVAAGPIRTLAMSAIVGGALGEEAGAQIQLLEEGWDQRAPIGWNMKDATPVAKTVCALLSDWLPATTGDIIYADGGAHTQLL
The experiment in a line: Inhibition of Mycobacterium tuberculosis InhA at 40 uM.

Data set [7] in a line: Toxicity assessed as haemolysis in RBC. It is filed as cell-based, Erythrocyte. As to conditions: red blood cells (RBC); read-out: LD50 (the source's name).
Data set [8] is described as follows: Selectivity index, ratio of MIC for Mycobacterium tuberculosis to cytotoxicity to african green monkey Vero cells. Format: functional.

In brackets after ≈: the same amount, converted by molar mass.

For `CC(=O)NC[C@H]1CN(c2ccc(N3CCSCC3)c(F)c2)C(=O)O1` [SUTEZOLID], the minimal inhibitory concentration (MIC) in data set [1] is ≤ 0.125 µg/mL.
In turn, `CC(C)c1ccc(-c2c(N)nnc3c2c2ccccc2n3C)cc1` displayed an MIC in data set [1] of 1.42 µg/mL (≈ 4.49 µM).
Consider `CCOC(=O)Nc1cc(NCCCCN(CC)CC)c2nc(-c3ccccc3)c(-c3ccccc3)nc2n1`, for which the ID50 in data set [2] came to 52 µM. This molecule registered an MIC in data set [1] of 0.15 µg/mL (≈ 0.293 µM).
On to `CN(C)C/C=C(\c1ccc(Br)cc1)c1ccc(-c2ccccc2)cc1`, for which the MIC in data set [3], in data set [4] and in data set [1] was 1.6 µg/mL (≈ 4.08 µM) each time. Further, in data set [5], the “Selectivity Index” value is listed as <2.
For `Cc1ccc2nc(SCc3cc([N+](=O)[O-])cc([N+](=O)[O-])c3)[nH]c2c1`, inhibition of growth in data set [1] (MIC) required 1.3 µg/mL (≈ 3.78 µM).
Same read-out and setting: in the case of `OC12CCCC(C1)SC(c1ccccc1)=N2` (stereo not drawn) it was ≤ 6.25 µg/mL; in that of `CC1(C)O[C@H]2OC(COCC(O)CNCCCCCCCCCCCCNCC(O)COCC3O[C@@H]4OC(C)(C)O[C@@H]4[C@H]4OC(C)(C)O[C@@H]34)[C@@H]3OC(C)(C)O[C@@H]3[C@H]2O1` (stereo partly drawn), 1.56 µg/mL (≈ 1.87 µM).
`N#Cc1c(N2CCN(c3ccc([N+](=O)[O-])cc3)CC2)[n+]([O-])c2ccccc2[n+]1[O-]` gave a minimal inhibitory concentration (MIC) in data set [1] of 0.1 µg/mL (≈ 0.255 µM).
Still for that read-out and setting: with `[H][C@@]12CC[C@H](C(C)CCC(N)=O)[C@@]1(C)CC[C@]1([H])[C@@]3(C)CC[C@]4(C[C@@]3([H])C[C@@H](OC(C)=O)[C@@]21[H])OOC1(CC[C@@H](C)CC1)OO4` (stereo partly drawn) the figure was 3.12 µg/mL (≈ 5.42 µM); with `c1ccc(-c2ccc(CNc3ccc(CN4CCSCC4)cc3)cc2)cc1`, 0.5 µg/mL (≈ 1.33 µM).
The same measure, in the same setting: in the case of `CN(C)S(=O)(=O)n1cnc2c(=S)[nH]cnc21` it was 0.78 µg/mL (≈ 3.01 µM).
`O=[N+]([O-])c1ccc(-c2cnn(-c3nccc(C(F)(F)F)n3)c2)c([N+](=O)[O-])c1`: the MIC in data set [4] and in data set [1] was 2.5 µg/mL (≈ 6.57 µM) throughout. The molecule also had an inhibition in data set [6] of 91%.
For the molecule `CCCCCCCCCCS(=O)(=O)CC(N)=O`, in data set [1], the MIC amounted to 0.75 µg/mL (≈ 2.85 µM).
Regarding `COc1ccc(C(=O)Nc2ccc(C(=O)NN3C(=O)CSC3c3ccc(F)cc3)cc2)cc1` (stereo not drawn), in data set [1], 6.25 µg/mL (≈ 13.4 µM) was the least that counted as inhibitory (MIC).
As to `O=C(COc1cnccn1)N/N=c1\scc(-c2ccc(Br)cc2)n1-c1ccc(Cl)cc1[N+](=O)[O-]`, the MIC in data set [1] was 0.3 µg/mL (≈ 0.534 µM). The HC50 in data set [7] was > 500 µg/mL.
In data set [1], `O=[N+]([O-])c1cn2c(n1)OC[C@@H](OCc1ccc(OC(F)(F)F)cc1)C2` [PRETOMANID] gave an MIC of 0.13 µg/mL (≈ 0.362 µM).
The molecule `S=c1oc2c(Cl)cc(Cl)cc2c(=S)n1-c1cccc(Cl)c1` gave an MIC in data set [1] of 4 µg/mL (≈ 10.7 µM).
Molecule `CCCCCCCCCCCCCCCCN[C@H](CC(=O)OCC)[C@@H]1O[C@@H]2OC(C)(C)O[C@@H]2C1OC` (stereo partly drawn) displayed an MIC in data set [1] of 3.12 µg/mL (≈ 6.07 µM).
Turning to `CCCCCCCCCCNC[C@H]1O[C@H](O[C@H]2O[C@H](CNCCCCCCCCCC)[C@@H](O)[C@H](O)[C@H]2O)[C@H](O)[C@@H](O)[C@@H]1O`, the MIC in data set [1] came out at 1.3 µg/mL (≈ 2.09 µM).
In data set [1], `c1ccc(-c2ccc(CNc3cccc(-c4c[nH]cn4)c3)cc2)cc1` registered an MIC of 4 µg/mL (≈ 12.3 µM). In data set [8], the “Selectivity Index” value is reported as 16.
For `Clc1nc(C2CCCO2)c2ncn(Cc3ccccc3)c2n1` (stereo not drawn), the MIC in data set [1] is 0.78 µg/mL (≈ 2.48 µM). For the same molecule, the “Selectivity Index” value in data set [8] turned out to be 10.6.
On to `CCCSc1nc(Cl)c(C#N)c(-c2ccc(F)cc2)n1`, for which, in data set [1], inhibition of growth (MIC) required 0.78 µg/mL (≈ 2.53 µM).
Still for that read-out and setting: in the case of `O=[N+]([O-])c1c[nH]cc1-c1ccc(Cl)cc1Cl` it was 1 µg/mL (≈ 3.89 µM); in that of `NS#Cc1cc(SCc2ccccc2F)ccn1`, 1.2 µg/mL (≈ 4.31 µM).
On the same count and under the same terms, with `CC(=O)/C(=C/C=C/[C@@H](OCc1ccccc1)[C@H](COCc1ccccc1)OCc1ccccc1)CCl` the figure was 3.1 µg/mL (≈ 6.14 µM); with `COC(=O)c1ccccc1S(=O)(=O)NC(=O)Nc1nc(C)cc(C)n1` [SULFOMETURON METHYL], 0.3 µg/mL (≈ 0.823 µM).
On the same count and under the same terms, with `CC(=O)NCCCC[C@H](OC(C)=O)[C@@H](COC(C)=O)OC(C)=O` the figure was ≤ 6.25 µg/mL; with `CCCCOc1ccc2nc(C)cc(N/N=C/c3cccc4c(OC)cccc34)c2c1`, 0.78 µg/mL (≈ 1.89 µM).
The molecule `CC1Nc2nc(NC(=O)Oc3ccccc3)cc(N)c2N=C1c1ccccc1` (stereo not drawn) displayed an MIC in data set [1] of 1.3 µg/mL (≈ 3.48 µM).
In the case of `COc1nc2ccc(Br)cc2cc1[C@@H](c1ccccc1)[C@@](O)(CCN(C)C)c1cccc2ccccc12` [BEDAQUILINE], in data set [1], 0.03 µg/mL (≈ 0.054 µM) was the least that counted as inhibitory (MIC).
The same measure, in the same setting: in the case of `O=C(Nc1ncccc1[N+](=O)[O-])c1c(O)cccc1Cl` it was < 1 µg/mL.
For `Cc1c(CN2CCN(C)CC2)cc(-c2ccc(Cl)cc2)n1-c1ccc(Cl)cc1`, in data set [1], the MIC worked out at 0.7 µg/mL (≈ 1.69 µM). The “Selectivity Index” value in data set [8] is given as 5.6.
On to `CCCCCCCCCCCCCCCCOCCCCOP(=O)(O)C[C@@H]1O[C@H](CO)[C@@H](O)[C@@H]1O`, for which, in data set [1], the MIC was determined as 3.13 µg/mL (≈ 5.97 µM).
